Measurements published in BigSolDB 2.1.

Clc1ncnc2nc[nH]c12
solubility (mole fraction)
Settings | 283.15 K | 288.15 K | 293.15 K | 298.15 K | 303.15 K | 308.15 K | 313.15 K | 318.15 K | 323.15 K | 328.15 K
in DMAc | 0.0175 | 0.0217 | 0.0267 | 0.0334 | 0.0411 | 0.0504 | 0.061 | 0.074 | 0.0893 | 0.107
in DMF | 0.0555 | 0.0645 | 0.075 | 0.0871 | 0.0995 | 0.114 | 0.129 | 0.147 | 0.165 | 0.186
in ethanol | 0.0087 | 0.0103 | 0.0122 | 0.0144 | 0.0168 | 0.0195 | 0.0226 | 0.026 | 0.0296 | 0.0338
in methanol | 0.0112 | 0.0132 | 0.0153 | 0.0178 | 0.0204 | 0.0234 | 0.0268 | 0.0304 | 0.0345 | 0.0389
in water | 0.00051 | 0.000555 | 0.000601 | 0.000658 | 0.000709 | 0.000761 | 0.000815 | 0.000873 | 0.000935 | 0.000994
